According to PubChem BioAssay (NCI):
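The compound was tested at five concentrations on cells cultured in 96-well plates, with a 48-hour exposure period. At the TGI there is no net growth.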

Columns and labels:
Assay in all cases: NCI anticancer screen, dose series, 48 h
786-0 renal = test system: 786-0 renal
A498 renal = test system: A498 renal
A549 NSCLC = test system: A549 NSCLC
ACHN renal = test system: ACHN renal
BT-549 breast = test system: BT-549 breast
CAKI-1 renal = test system: CAKI-1 renal
CCRF-CEM leukemia = test system: CCRF-CEM leukemia
COLO 205 colon = test system: COLO 205 colon
DU-145 prostate = test system: DU-145 prostate
EKVX NSCLC = test system: EKVX NSCLC
HCT-116 colon = test system: HCT-116 colon
HCT-15 colon = test system: HCT-15 colon
HL-60(TB) leukemia = test system: HL-60(TB) leukemia
HOP-62 NSCLC = test system: HOP-62 NSCLC
HOP-92 NSCLC = test system: HOP-92 NSCLC
HS 578T breast = test system: HS 578T breast
HT29 colon = test system: HT29 colon
IGROV1 ovarian = test system: IGROV1 ovarian
K-562 leukemia = test system: K-562 leukemia
KM12 colon = test system: KM12 colon
LOX IMVI melanoma = test system: LOX IMVI melanoma
M14 melanoma = test system: M14 melanoma
MALME-3M melanoma = test system: MALME-3M melanoma
MCF7 breast = test system: MCF7 breast
MDA-MB-231 breast = test system: MDA-MB-231 breast
MDA-MB-435 = test system: MDA-MB-435
MDA-N = test system: MDA-N
MOLT-4 leukemia = test system: MOLT-4 leukemia
NCI-H226 lung = test system: NCI-H226 lung
NCI-H23 lung = test system: NCI-H23 lung
NCI-H522 lung = test system: NCI-H522 lung
NCI/ADR-RES ovarian = test system: NCI/ADR-RES ovarian
OVCAR-3 ovarian = test system: OVCAR-3 ovarian
OVCAR-4 ovarian = test system: OVCAR-4 ovarian
OVCAR-5 ovarian = test system: OVCAR-5 ovarian
OVCAR-8 ovarian = test system: OVCAR-8 ovarian
PC-3 prostate = test system: PC-3 prostate
RPMI-8226 leukemia = test system: RPMI-8226 leukemia
SF-268 CNS = test system: SF-268 CNS
SF-295 CNS = test system: SF-295 CNS
SF-539 CNS = test system: SF-539 CNS
SK-MEL-2 melanoma = test system: SK-MEL-2 melanoma
SK-MEL-28 melanoma = test system: SK-MEL-28 melanoma
SK-MEL-5 melanoma = test system: SK-MEL-5 melanoma
SK-OV-3 ovarian = test system: SK-OV-3 ovarian
SN12C renal = test system: SN12C renal
SNB-19 CNS = test system: SNB-19 CNS
SR leukemia = test system: SR leukemia
SW-620 colon = test system: SW-620 colon
T-47D breast = test system: T-47D breast
TK-10 renal = test system: TK-10 renal
U251 CNS = test system: U251 CNS
UACC-257 melanoma = test system: UACC-257 melanoma
UACC-62 melanoma = test system: UACC-62 melanoma
UO-31 renal = test system: UO-31 renal
NCI-H460 lung = test system: NCI-H460 lung
RXF 393 renal = test system: RXF 393 renal
SNB-75 CNS = test system: SNB-75 CNS

For `COc1ccc2c3c1O[C@H]1[C@@H](O)CC[C@@]4(O)[C@@H](C2)N(C)CC[C@]314`, the TGI (786-0 renal) was greater than 100 µM, the TGI (A498 renal) was greater than 100 µM and the TGI (A549 NSCLC) was greater than 100 µM. For the same compound, the TGI (ACHN renal) was greater than 100 µM, the TGI (BT-549 breast) was greater than 100 µM and the TGI (CAKI-1 renal) was greater than 100 µM. The TGI (CCRF-CEM leukemia) was greater than 100 µM, the TGI (COLO 205 colon) was greater than 100 µM and the TGI (DU-145 prostate) was greater than 100 µM. The TGI (EKVX NSCLC) was greater than 100 µM, the TGI (HCT-116 colon) was greater than 100 µM and the TGI (HCT-15 colon) was greater than 100 µM. It also gave a TGI (HL-60(TB) leukemia) greater than 100 µM, a TGI (HOP-62 NSCLC) greater than 100 µM and a TGI (HOP-92 NSCLC) greater than 100 µM. The TGI (HS 578T breast) was greater than 100 µM, the TGI (HT29 colon) was greater than 100 µM and the TGI (IGROV1 ovarian) was greater than 100 µM. It also gave a TGI (K-562 leukemia) greater than 100 µM, a TGI (KM12 colon) greater than 100 µM and a TGI (LOX IMVI melanoma) greater than 100 µM. For the same compound, the TGI (M14 melanoma) was greater than 100 µM, the TGI (MALME-3M melanoma) was greater than 100 µM and the TGI (MCF7 breast) was greater than 100 µM. The TGI (MDA-MB-231 breast) was greater than 100 µM, the TGI (MDA-MB-435) was greater than 100 µM and the TGI (MDA-N) was greater than 100 µM. For the same compound, the TGI (MOLT-4 leukemia) was greater than 100 µM, the TGI (NCI-H226 lung) was greater than 100 µM and the TGI (NCI-H23 lung) was greater than 100 µM. The TGI (NCI-H522 lung) was greater than 100 µM, the TGI (NCI/ADR-RES ovarian) was greater than 100 µM and the TGI (OVCAR-3 ovarian) was greater than 100 µM. It also gave a TGI (OVCAR-4 ovarian) greater than 100 µM, a TGI (OVCAR-5 ovarian) greater than 100 µM and a TGI (OVCAR-8 ovarian) greater than 100 µM. For the same compound, the TGI (PC-3 prostate) was greater than 100 µM, the TGI (RPMI-8226 leukemia) was greater than 100 µM and the TGI (SF-268 CNS) was greater than 100 µM. The TGI (SF-295 CNS) was greater than 100 µM, the TGI (SF-539 CNS) was greater than 100 µM and the TGI (SK-MEL-2 melanoma) was greater than 100 µM. It also gave a TGI (SK-MEL-28 melanoma) greater than 100 µM, a TGI (SK-MEL-5 melanoma) greater than 100 µM and a TGI (SK-OV-3 ovarian) greater than 100 µM. It also gave a TGI (SN12C renal) greater than 100 µM, a TGI (SNB-19 CNS) greater than 100 µM and a TGI (SR leukemia) greater than 100 µM. It also gave a TGI (SW-620 colon) greater than 100 µM, a TGI (T-47D breast) greater than 100 µM and a TGI (TK-10 renal) greater than 100 µM. It also gave a TGI (U251 CNS) greater than 100 µM, a TGI (UACC-257 melanoma) greater than 100 µM and a TGI (UACC-62 melanoma) greater than 100 µM. The TGI (UO-31 renal) was greater than 100 µM.
With `C=CCSc1nc2c(N)ncnc2n1C1OC(CO)C(O)C1O` (configuration not stated) the TGI (786-0 renal) was greater than 100 µM, the TGI (A498 renal) was greater than 100 µM and the TGI (A549 NSCLC) was greater than 100 µM. For the same compound, the TGI (ACHN renal) was greater than 100 µM, the TGI (BT-549 breast) was greater than 100 µM and the TGI (CAKI-1 renal) was greater than 100 µM. For the same compound, the TGI (COLO 205 colon) was greater than 100 µM, the TGI (DU-145 prostate) was greater than 100 µM and the TGI (EKVX NSCLC) was greater than 100 µM. For the same compound, the TGI (HCT-116 colon) was greater than 100 µM, the TGI (HCT-15 colon) was greater than 100 µM and the TGI (HL-60(TB) leukemia) was greater than 100 µM. The TGI (HOP-62 NSCLC) was greater than 100 µM, the TGI (HOP-92 NSCLC) was greater than 100 µM and the TGI (HS 578T breast) was greater than 100 µM. For the same compound, the TGI (HT29 colon) was greater than 100 µM, the TGI (IGROV1 ovarian) was greater than 100 µM and the TGI (K-562 leukemia) was greater than 100 µM. For the same compound, the TGI (KM12 colon) was greater than 100 µM, the TGI (LOX IMVI melanoma) was greater than 100 µM and the TGI (M14 melanoma) was greater than 100 µM. It also gave a TGI (MALME-3M melanoma) greater than 100 µM, a TGI (MCF7 breast) greater than 100 µM and a TGI (MDA-MB-231 breast) greater than 100 µM. It also gave a TGI (MDA-MB-435) greater than 100 µM, a TGI (MDA-N) greater than 100 µM and a TGI (MOLT-4 leukemia) greater than 100 µM. The TGI (NCI-H226 lung) was greater than 100 µM, the TGI (NCI-H23 lung) was greater than 100 µM and the TGI (NCI-H460 lung) was greater than 100 µM. It also gave a TGI (NCI-H522 lung) greater than 100 µM, a TGI (NCI/ADR-RES ovarian) greater than 100 µM and a TGI (OVCAR-3 ovarian) greater than 100 µM. It also gave a TGI (OVCAR-4 ovarian) greater than 100 µM, a TGI (OVCAR-5 ovarian) greater than 100 µM and a TGI (OVCAR-8 ovarian) greater than 100 µM. It also gave a TGI (PC-3 prostate) greater than 100 µM, a TGI (RPMI-8226 leukemia) greater than 100 µM and a TGI (RXF 393 renal) greater than 100 µM. For the same compound, the TGI (SF-268 CNS) was greater than 100 µM, the TGI (SF-295 CNS) was greater than 100 µM and the TGI (SF-539 CNS) was greater than 100 µM. For the same compound, the TGI (SK-MEL-2 melanoma) was greater than 100 µM, the TGI (SK-MEL-28 melanoma) was greater than 100 µM and the TGI (SK-MEL-5 melanoma) was greater than 100 µM. For the same compound, the TGI (SK-OV-3 ovarian) was greater than 100 µM, the TGI (SN12C renal) was greater than 100 µM and the TGI (SNB-19 CNS) was greater than 100 µM. It also gave a TGI (SNB-75 CNS) greater than 100 µM, a TGI (SR leukemia) greater than 100 µM and a TGI (SW-620 colon) greater than 100 µM. It also gave a TGI (T-47D breast) greater than 100 µM, a TGI (TK-10 renal) greater than 100 µM and a TGI (U251 CNS) greater than 100 µM. For the same compound, the TGI (UACC-257 melanoma) was greater than 100 µM, the TGI (UACC-62 melanoma) was greater than 100 µM and the TGI (UO-31 renal) was greater than 100 µM.
Compound `O=C1CSC(c2ccccc2O)N1c1ccc(-c2ccc(-n3c(-c4ccccc4)nc4ccccc4c3=O)cc2)cc1` (configuration not stated) has a TGI (786-0 renal) of 60.9 µM, a TGI (A498 renal) greater than 100 µM and a TGI (A549 NSCLC) of 77.8 µM. The TGI (BT-549 breast) was 55.7 µM, the TGI (CAKI-1 renal) was 69.1 µM and the TGI (CCRF-CEM leukemia) was greater than 100 µM. For the same compound, the TGI (COLO 205 colon) was 44.9 µM, the TGI (DU-145 prostate) was greater than 100 µM and the TGI (EKVX NSCLC) was greater than 100 µM. The TGI (HCT-116 colon) was greater than 100 µM, the TGI (HCT-15 colon) was greater than 100 µM and the TGI (HL-60(TB) leukemia) was greater than 100 µM. It also gave a TGI (HOP-62 NSCLC) greater than 100 µM, a TGI (HOP-92 NSCLC) greater than 100 µM and a TGI (HS 578T breast) greater than 100 µM. For the same compound, the TGI (HT29 colon) was 28.7 µM, the TGI (IGROV1 ovarian) was greater than 100 µM and the TGI (K-562 leukemia) was greater than 100 µM. For the same compound, the TGI (KM12 colon) was 52.3 µM, the TGI (LOX IMVI melanoma) was 77.4 µM and the TGI (M14 melanoma) was greater than 100 µM. For the same compound, the TGI (MALME-3M melanoma) was 49.3 µM, the TGI (MCF7 breast) was greater than 100 µM and the TGI (MDA-MB-231 breast) was greater than 100 µM. The TGI (MDA-MB-435) was greater than 100 µM, the TGI (MDA-N) was greater than 100 µM and the TGI (MOLT-4 leukemia) was greater than 100 µM. For the same compound, the TGI (NCI-H226 lung) was greater than 100 µM, the TGI (NCI-H23 lung) was greater than 100 µM and the TGI (NCI-H460 lung) was greater than 100 µM. The TGI (NCI-H522 lung) was 44.7 µM, the TGI (NCI/ADR-RES ovarian) was greater than 100 µM and the TGI (OVCAR-3 ovarian) was greater than 100 µM. It also gave a TGI (OVCAR-4 ovarian) greater than 100 µM, a TGI (OVCAR-5 ovarian) greater than 100 µM and a TGI (OVCAR-8 ovarian) greater than 100 µM. For the same compound, the TGI (PC-3 prostate) was 94.9 µM, the TGI (RPMI-8226 leukemia) was greater than 100 µM and the TGI (RXF 393 renal) was 91.9 µM. The TGI (SF-268 CNS) was greater than 100 µM, the TGI (SF-295 CNS) was 54.2 µM and the TGI (SF-539 CNS) was greater than 100 µM. For the same compound, the TGI (SK-MEL-28 melanoma) was greater than 100 µM, the TGI (SK-OV-3 ovarian) was greater than 100 µM and the TGI (SN12C renal) was greater than 100 µM. The TGI (SNB-19 CNS) was greater than 100 µM, the TGI (SNB-75 CNS) was greater than 100 µM and the TGI (SR leukemia) was greater than 100 µM. It also gave a TGI (SW-620 colon) greater than 100 µM, a TGI (T-47D breast) greater than 100 µM and a TGI (TK-10 renal) of 71 µM. It also gave a TGI (U251 CNS) greater than 100 µM, a TGI (UACC-257 melanoma) greater than 100 µM and a TGI (UACC-62 melanoma) greater than 100 µM. The TGI (UO-31 renal) was greater than 100 µM.
